Laboratory results taken from patent US6696437B1, “Heterocyclically substituted benzimidazoles, the production and application thereof” (Abbott GmbH & Co. KG, priority 1999, dated 2004).

Key:
[1] = S. Cuzzocrea et al., Br. J. Pharmacol. 1997; cited from earlier work
[2] = Determination of the solubility in water; format: physicochemical; conditions: pH 5-6 adjusted with sodium acetate solution
Method: Determination of the Solubility in Water
A compound to be measured is dissolved directly in a fixed volume of water, and the resulting solution is adjusted to pH 5-6 with a sodium acetate solution so that the active ingredient concentration to be tested is reached. If the measured substance is not in the form of a water-soluble salt, it was dissolved in the minimum amount of dimethyl sulfoxide and then diluted with water (final dimethyl sulfoxide concentration≦1%), after which the pH was again adjusted.

[3] = tested on: poly(ADP-ribose) polymerase or PARP (EC 2.4.2.30); test: Inhibition of the enzyme poly(ADP-ribose) polymerase (ELISA / HTRF assay); format: biochemical, human or bovine
Method: The inhibitory effect of the substituted benzimidazoles I and II can be determined using an enzyme assay disclosed in the literature, with a Ki being determined as gauge of the effect. The benzimidazoles I and II were measured in this way for an inhibitory effect on the enzyme poly(ADP-ribose) polymerase or PARP (EC 2.4.2.30).
Inhibition of the Enzyme poly(ADP-ribose) Polymerase or PARP (EC 2.4.2.30)
A 96-well microtiter plate (FALCON Micro-Test IIIä Flexible Assay Plate, #3912) was coated with histones (SIGMA, H-7755). Histones were for this purpose dissolved in carbonate buffer (0.05 M […]; pH 9.4) in a concentration of 50 μg/ml. The individual wells of the microtiter plate were each incubated with 150 μl of this histone solution at room temperature for at least 2 hours or at 4° C. overnight. The wells are then blocked by adding 150 μl of a 1% strength BSA solution (SIGMA, A-7888) in carbonate buffer at room temperature for 2 hours. This is followed by three washing steps with washing buffer (0.05% […] in 1×PBS; PBS (phosphate buffered saline; Gibco, Order No. 10010): 0.21 g/l KH2PO4, 9 g/l NaCl, 0.726 g/l Na2HPO4.7H2O, pH 7.4). Washing steps were all carried out in a microtiter plate washer (“Columbus” microtiter plate washer, SLT-Labinstruments, Austria).
Required for the enzyme reaction were an enzyme reaction solution and a substrate solution, in each case as a premix. The absolute amount of these solutions depended on the intended number of assay wells.
Composition of the enzyme reaction solution per well:
4 μl of PARP reaction buffer (1 M tris-HCl pH 8.0, 100 mM MgCl2, 10 mM DTT)
20 ng of PARP (human or bovine)
4 μl of activated DNA (1 mg/ml; SIGMA, D-4522)
Composition of the substrate solution per well:
5 μl of PARP reaction buffer (10×)
0.8 μl of NAD solution (10 mM, SIGMA N-1511)
Inhibitors were dissolved in 1× PARP reaction buffer. DMSO, which was occasionally used to dissolve inhibitors in higher concentrations, was no problem up to a final concentration of 2%. For the enzyme reaction, 40μl of the enzyme reaction solution were introduced into each well and incubated with 10 μl of inhibitor solution for 10 minutes. The enzyme reaction was then started by adding 50 μl of substrate solution per well. The reaction was carried out at room temperature for 30 minutes and then stopped by washing three times with washing buffer.
The primary antibodies employed were specific anti-poly(ADP-ribose) antibodies in a dilution of 1:5000. Dilution took place in antibody buffer (1% BSA in PBS; 0.05% Tween20). Incubation time for the primary antibody was one hour at room temperature. […] This was followed by immediate measurement in an ELISA plate reader (EAR340AT “Easy Reader”, SLT-Labinstruments, Austria) (450 nm versus 620 nm).
Various concentrations were used to construct a dose-effect plot to determine the Ki of an inhibitor. […] Arithmetic means are determined using Microsoft© Excel. The IC50 is determined using the Microcal© Origin Software (Vers. 5.0) (“Sigmoidal Fit”). Conversion of the IC50 values calculated in this way into Ki values took place by using “calibration inhibitors”. The “calibration inhibitors” were also measured in each analysis. […]

[4] = target: PARP II (Homo sapiens, UniProt Q9UGN5); test: Inhibition of the enzyme PARP II; format: biochemical; conditions: PARP versus PARP II
Chain of PARP II (Q9UGN5 whole entry): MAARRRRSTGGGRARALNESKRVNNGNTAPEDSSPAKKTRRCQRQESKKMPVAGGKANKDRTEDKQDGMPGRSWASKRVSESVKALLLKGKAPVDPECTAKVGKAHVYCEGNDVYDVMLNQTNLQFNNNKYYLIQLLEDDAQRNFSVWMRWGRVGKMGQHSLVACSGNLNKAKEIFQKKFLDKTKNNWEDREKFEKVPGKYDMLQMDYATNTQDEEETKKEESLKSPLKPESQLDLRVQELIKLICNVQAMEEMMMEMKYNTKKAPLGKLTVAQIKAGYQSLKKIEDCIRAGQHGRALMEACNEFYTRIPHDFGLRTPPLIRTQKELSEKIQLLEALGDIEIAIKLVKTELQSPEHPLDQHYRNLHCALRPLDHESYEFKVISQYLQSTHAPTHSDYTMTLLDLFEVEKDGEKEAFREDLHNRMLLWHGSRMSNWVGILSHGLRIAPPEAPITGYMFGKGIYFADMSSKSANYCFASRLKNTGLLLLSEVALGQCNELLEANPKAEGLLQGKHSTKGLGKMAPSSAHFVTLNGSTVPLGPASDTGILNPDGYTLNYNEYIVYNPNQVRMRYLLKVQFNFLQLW

| SMILES | ranking as PARP inhibitor [3] | other results |
| --- | --- | --- |
| NC(=O)c1cccc(N)c1 [3-aminobenzamide] |  | effect in a model of circulatory failure [1]: protective effects |
| NC(=O)c1cccc2[nH]c(-c3ccncc3)nc12 [Example 1, 2-Pyridin-4-ylbenzimidazole-4-carboxamide] |  | solubility in water [2]: > 0.5% |
| CCN(CC)CCN(C)c1ccc(-c2nc3c(C(N)=O)cccc3[nH]2)cn1.Cl.Cl [Example 15, 2-(6-((2-(N,N-Diethylamino)eth-1-yl)methylamino)pyridin-3-yl)benzimidazole-4-carboxamide×2 HCl] | best PARP inhibitors |  |
| CCCN1CCN(c2ccc(-c3nc4cccc(C(N)=O)c4[nH]3)cn2)CC1 [Example 16, 2-(6-(4-Propylpiperazin-1-yl)pyridin-3-yl)benzimidazole-4-carboxamide] | best PARP inhibitors |  |
| CCN(CC)CCN(C)c1cc(-c2nc3c(C(N)=O)cccc3[nH]2)ccn1.CCN(CC)CCN(C)c1cc(-c2nc3c(C(N)=O)cccc3[nH]2)ccn1.O=C(O)/C=C/C(=O)O [Example 25, 2-(2-((2-(N,N-Diethylamino)eth-1-yl)methylamino)pyridin-4-yl)benzimidazole-4-carboxamide×½ Fumaric Acid] | best PARP inhibitors |  |
| CC(C)(C)N1CCN(c2ccc(-c3nc4cccc(C(N)=O)c4[nH]3)cn2)CC1 [Example 36, 2-(2-(4-tert-Butylpiperazin-1-yl)pyridin-5-yl)benzimidazole-4-carboxamide] | best PARP inhibitors |  |
| CCCCN1CCN(c2ccc(-c3nc4cccc(C(N)=O)c4[nH]3)cn2)CC1.Cl [Example 37, 2-(2-(4-n-Butylpiperazin-1-yl)pyridin-5-yl)benzimidazole-4-carboxamide×HCl] | best PARP inhibitors |  |
| NC(=O)c1cccc2nc(-c3ccccc3)[nH]c12 [NU 1070, 2-phenylbenzimidazole-4-carboxamide] |  | Ki values for PARP compared with PARP II (selectivity) [4]: same order of magnitude |
| COc1ccc(-c2nc3cccc(C(N)=O)c3[nH]2)cc1 [NU 1076, reference compound] |  | solubility in water [2]: < 0.01% |
